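96-well plates; 48 h exposure; 5 concentrations. Endpoints by linear interpolation between flanking doses. Not reached: highest tested concentration assigned. GI50 marks 50% less growth. At the TGI there is no net growth.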
How the values were obtained:
Assay in all cases: NCI tumour cell line growth inhibition, 48 h
HS 578T breast = test system: HS 578T breast
HCT-15 colon = test system: HCT-15 colon
MOLT-4 leukemia = test system: MOLT-4 leukemia
NCI-H226 lung = test system: NCI-H226 lung
RPMI-8226 leukemia = test system: RPMI-8226 leukemia
KM12 colon = test system: KM12 colon
SW-620 colon = test system: SW-620 colon
U251 CNS = test system: U251 CNS
SK-MEL-5 melanoma = test system: SK-MEL-5 melanoma
A498 renal = test system: A498 renal
SF-268 CNS = test system: SF-268 CNS
PC-3 prostate = test system: PC-3 prostate
SK-OV-3 ovarian = test system: SK-OV-3 ovarian
ACHN renal = test system: ACHN renal
MDA-MB-435 = test system: MDA-MB-435
NCI-H522 lung = test system: NCI-H522 lung
UACC-62 melanoma = test system: UACC-62 melanoma
UACC-257 melanoma = test system: UACC-257 melanoma
DU-145 prostate = test system: DU-145 prostate
786-0 renal = test system: 786-0 renal
SNB-19 CNS = test system: SNB-19 CNS
HL-60(TB) leukemia = test system: HL-60(TB) leukemia
K-562 leukemia = test system: K-562 leukemia
COLO 205 colon = test system: COLO 205 colon
OVCAR-5 ovarian = test system: OVCAR-5 ovarian
SK-MEL-28 melanoma = test system: SK-MEL-28 melanoma

In the case of `CC(C)(C)CC(C)(C)N(CSc1ccc(Cl)cc1)CSc1ccc(Cl)cc1`, the TGI (HS 578T breast) is reported as greater than 100000 nM, the GI50 (HCT-15 colon) is reported as 2290 nM and the TGI (HCT-15 colon) is reported as 11500 nM. For the same compound, the GI50 (MOLT-4 leukemia) was 841 nM, the TGI (MOLT-4 leukemia) was 5090 nM and the GI50 (NCI-H226 lung) was 836 nM. The TGI (NCI-H226 lung) was 2670 nM, the GI50 (RPMI-8226 leukemia) was 2170 nM and the TGI (RPMI-8226 leukemia) was 5110 nM. The GI50 (KM12 colon) was 486 nM, the TGI (KM12 colon) was 4550 nM and the GI50 (SW-620 colon) was 2020 nM. For the same compound, the TGI (SW-620 colon) was 4930 nM, the GI50 (U251 CNS) was 415 nM and the TGI (U251 CNS) was 2090 nM. For the same compound, the GI50 (SK-MEL-5 melanoma) was 1290 nM, the TGI (SK-MEL-5 melanoma) was 2610 nM and the GI50 (A498 renal) was 207 nM. The TGI (A498 renal) was 863 nM, the GI50 (SF-268 CNS) was 803 nM and the TGI (SF-268 CNS) was 4390 nM. For the same compound, the GI50 (PC-3 prostate) was 472 nM, the TGI (PC-3 prostate) was 4300 nM and the GI50 (SK-OV-3 ovarian) was 2680 nM. For the same compound, the TGI (SK-OV-3 ovarian) was 12400 nM, the GI50 (ACHN renal) was 2560 nM and the TGI (ACHN renal) was 11400 nM. For the same compound, the GI50 (MDA-MB-435) was 1450 nM, the TGI (MDA-MB-435) was 4050 nM and the GI50 (NCI-H522 lung) was 1650 nM. For the same compound, the TGI (NCI-H522 lung) was 3080 nM, the GI50 (UACC-62 melanoma) was 1720 nM and the TGI (UACC-62 melanoma) was 3770 nM. The GI50 (UACC-257 melanoma) was 1850 nM, the TGI (UACC-257 melanoma) was 6180 nM and the GI50 (DU-145 prostate) was 2250 nM. It also gave a TGI (DU-145 prostate) of 11200 nM, a GI50 (786-0 renal) of 1560 nM and a TGI (786-0 renal) of 4010 nM. For the same compound, the GI50 (SNB-19 CNS) was 2140 nM, the TGI (SNB-19 CNS) was 19900 nM and the GI50 (HL-60(TB) leukemia) was 1750 nM. It also gave a TGI (HL-60(TB) leukemia) of 3960 nM, a GI50 (K-562 leukemia) of 3490 nM and a TGI (K-562 leukemia) of 26000 nM. For the same compound, the GI50 (COLO 205 colon) was 2150 nM, the TGI (COLO 205 colon) was 4190 nM and the GI50 (OVCAR-5 ovarian) was 2190 nM. The TGI (OVCAR-5 ovarian) was 6260 nM, the GI50 (SK-MEL-28 melanoma) was 1990 nM and the TGI (SK-MEL-28 melanoma) was 5740 nM.

Reference: PubChem BioAssay (NCI)
